Assay results: US20250154123A1, “COOLING COMPOUNDS AND COMPOSITIONS” (V. MANE FILS, priority 2022, published 2025)

What was measured:
Type in all cases: cell-based
hTRPM8 [1] = target: T1, hTRPM8 (Homo sapiens, UniProt Q7Z2W7); test: Secondary in vitro screening on hTRPM8 at 5 μM versus WS-3; conditions: WS3 as reference compound
T1 construct: expressed in transfected cells; host or cells: CHO-KJ cells [sic]
Procedure: (§1) The compounds were evaluated in vitro on CHO-KJ cells expressing the gene encoding the hTRPM8 ion channel (Table 1). Channel activation is determined by fluorometric measurement of […] calcium using FLUO-8. The activity of the compounds was measured relative to icilin (known hTRPM8 agonist).
The compounds 1 to 40 were tested on hTRPM8 at 5 μM using WS3 as the reference compound (Table 2).

hTRPM8 ion channel = target: T2, hTRPM8 ion channel (Homo sapiens, UniProt Q7Z2W7); test: Primary in vitro screening on hTRPM8 (CHO-KJ cells, FLUO-8 calcium fluorometry, relative to icilin); conditions: for % activation vs iciline: CHO-KJ cells expressing hTRPM8
T2 construct: expressed in transfected cells; host or cells: CHO-KJ cells [sic]
T2 sequence (Q7Z2W7 whole entry): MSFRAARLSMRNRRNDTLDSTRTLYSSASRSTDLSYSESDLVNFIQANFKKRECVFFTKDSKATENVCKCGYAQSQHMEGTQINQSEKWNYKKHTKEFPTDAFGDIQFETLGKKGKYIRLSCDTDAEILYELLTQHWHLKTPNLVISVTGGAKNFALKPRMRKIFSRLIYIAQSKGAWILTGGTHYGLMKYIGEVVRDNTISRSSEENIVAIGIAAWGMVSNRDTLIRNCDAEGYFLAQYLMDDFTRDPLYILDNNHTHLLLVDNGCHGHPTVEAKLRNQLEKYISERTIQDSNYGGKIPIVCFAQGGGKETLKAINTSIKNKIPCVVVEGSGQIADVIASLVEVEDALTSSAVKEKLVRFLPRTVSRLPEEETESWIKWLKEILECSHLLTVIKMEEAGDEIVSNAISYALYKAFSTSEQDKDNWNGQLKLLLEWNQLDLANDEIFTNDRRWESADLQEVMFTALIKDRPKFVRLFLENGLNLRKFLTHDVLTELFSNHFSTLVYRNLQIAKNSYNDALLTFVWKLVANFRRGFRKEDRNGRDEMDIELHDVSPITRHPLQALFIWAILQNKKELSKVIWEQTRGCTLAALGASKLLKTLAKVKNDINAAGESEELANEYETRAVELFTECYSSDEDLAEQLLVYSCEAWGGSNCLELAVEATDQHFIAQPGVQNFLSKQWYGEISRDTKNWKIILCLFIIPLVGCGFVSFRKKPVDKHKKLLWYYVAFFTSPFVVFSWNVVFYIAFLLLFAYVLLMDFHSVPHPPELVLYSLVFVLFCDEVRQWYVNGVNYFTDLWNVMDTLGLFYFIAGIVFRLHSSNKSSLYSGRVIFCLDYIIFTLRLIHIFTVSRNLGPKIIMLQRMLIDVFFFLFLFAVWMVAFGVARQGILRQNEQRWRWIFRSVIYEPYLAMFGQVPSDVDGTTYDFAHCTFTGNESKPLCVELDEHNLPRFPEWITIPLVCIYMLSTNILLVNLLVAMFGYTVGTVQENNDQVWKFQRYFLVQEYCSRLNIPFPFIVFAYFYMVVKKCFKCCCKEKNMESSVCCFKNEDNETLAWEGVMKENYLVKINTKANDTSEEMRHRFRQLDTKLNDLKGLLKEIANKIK
Procedure: as §1

hTRPM8 [2] = target: T1, hTRPM8; test: EC50 measurement on hTRPM8 (response curve); conditions: for EC50: hTRPM8, response curve
Procedure: as §1
A response curve was developed for compounds 1, 3, 5 and 37 which made it possible to determine the EC50 (half maximal effective concentration) values on hTRPM8 and compare them with the EC50 values of the comparative compounds (Table 3).

T1 sequence (Q7Z2W7 whole entry): as above

| activation at 5 µM (hTRPM8 [1]) [%] | Structure (SMILES) | further results |
| --- | --- | --- |
| 3 | CC1OCC2(CO1)C[C@H](C)CC[C@H]2C(C)C (stereo partly drawn) [Compound 2, (7S,1OR)-7-isopropyl-3,10-dimethyl-2,4-dioxaspiro[5.5]undecane] | % activation vs iciline (hTRPM8 ion channel; concentration 109 μM): 26% |
| 94 | CC(C)[C@@H]1CC[C@@H](C)CC12COC(C)(C)OC2 [Compound 3, (7S,1OR)-7-isopropyl-3,3,10-trimethyl-2,4-dioxaspiro[5.5]undecane] | % activation vs iciline (hTRPM8 ion channel; concentration 104 μM): 99%; activation on hTRPM8 compared with comparative molecules (Physcool, WS-5, WS-3, l-isopulegol, l-menthol, menthyl lactate) (hTRPM8 ion channel; primary screening, Table 1): greater activations than the comparative molecules; EC50 on hTRPM8 compared with WS-3 and WS-5 (hTRPM8 [2]; Table 3): EC50 values lower than WS-3™ and similar to WS-5™; EC50 (hTRPM8 [2]): 2.5 µM |
| -1 | CCC1OCC2(CO1)C[C@H](C)CC[C@H]2C(C)C (stereo partly drawn) [Compound 4, (7S,1OR)-3-ethyl-7-isopropyl-10-methyl-2,4-dioxaspiro[5.5]undecane] | % activation vs iciline (hTRPM8 ion channel; concentration 101 μM): 39% |
| 3 | CC(C)[C@@H]1CC[C@@H](C)CC12COCOC2 [Compound 6, (7S,1OR)-7-isopropyl-10-methyl-2,4-dioxaspiro[5.5]undecane] | % activation vs iciline (hTRPM8 ion channel; concentration 104 μM): 32% |
| 1 | CCC1(C)OCC2(CO1)C[C@H](C)CC[C@H]2C(C)C (stereo partly drawn) [Compound 13, (7S,1OR)-3-ethyl-7-isopropyl-3,10-dimethyl-2,4-dioxaspiro[5.5]undecane] | – |
| -1 | CCCC1OCC2(CO1)C[C@H](C)CC[C@H]2C(C)C (stereo partly drawn) [Compound 14, (7S,1OR)-7-isopropyl-10-methyl-3-propyl-2,4-dioxaspiro[5.5]undecane] | – |
| -6 | CC(C)C1OCC2(CO1)C[C@H](C)CC[C@H]2C(C)C (stereo partly drawn) [Compound 15, (7S,1OR)-3,7-diisopropyl-10-methyl-2,4-dioxaspiro[5.5]undecane] | – |
| -1 | CCC(C)C1OCC2(CO1)C[C@H](C)CC[C@H]2C(C)C (stereo partly drawn) [Compound 16, (7S,1OR)-3-(sec-butyl)-7-isopropyl-10-methyl-2,4-dioxaspiro[5.5]undecane] | – |
| 3 | CC(C)[C@@H]1CC[C@@H](C)CC12COC(c1ccccc1)OC2 (stereo partly drawn) [Compound 18, (7S,1OR)-7-isopropyl-10-methyl-3-phenyl-2,4-dioxaspiro[5.5]undecane] | – |
| 4 | CC(C)[C@@H]1CC[C@@H](C)CC12COC(c1ccccn1)OC2 (stereo partly drawn) [Compound 23, 2-((7S,10R)-7-isopropyl-10-methyl-2,4-dioxaspiro[5.5]undecan-3-yl) pyridine] | – |
| 3 | CC(C)[C@@H]1CC[C@@H](C)CC12COC(c1cccs1)OC2 (stereo partly drawn) [Compound 24, (7S,1OR)-7-isopropyl-10-methyl-3-(thiophen-2-yl)-2,4-dioxaspiro[5.5]undecane] | – |
| 3 | CSCCC1OCC2(CO1)C[C@H](C)CC[C@H]2C(C)C (stereo partly drawn) [Compound 25, (7S,1OR)-7-isopropyl-10-methyl-3-(2-(methylthio)ethyl)-2,4-dioxaspiro [5.5]undecane] | – |
| 5 | CCOC(=O)C1OCC2(CO1)C[C@H](C)CC[C@H]2C(C)C (stereo partly drawn) [Compound 28, Ethyl (7S,1OR)-7-isopropyl-10-methyl-2,4-dioxaspiro[5.5]undecane-3-carboxylate] | – |
| 1 | CC1OCC2(CO1)CC(C)(C)CCC2C(C)C (centres unmarked) [Compound 33, 7-isopropyl-3,10,10-trimethyl-2,4-dioxaspiro[5.5]undecane] | – |

Second part, the molecule before the results:

| Structure (SMILES) | activation at 5 µM (hTRPM8 [1]) [%] | further results |
| --- | --- | --- |
| CC(C)C1CCC(C)(C)CC1(CO)CO (single isomer, unassigned) [Compound 30, (2-isopropyl-5,5-dimethylcyclohexane-1,1-diyl)dimethanol] | 71 | – |
| CC(C)[C@@H]1CC[C@@H](C)CC12COC1(C[C@H](C)CC[C@H]1C(C)C)OC2 (stereo partly drawn) [Compound 7, (1S,4R,10S,13R)-1,10-diisopropyl-4,13-dimethyl-7,16-dioxadispiro [5.2.5^90.2^6]hexadecane] | 0 | – |
| CC(C)[C@@H]1CC[C@@H](C)CC1(C=O)C=O [Compound 8, (2S,5R)-2-isopropyl-5-methylcyclohexane-1,1-dicarbaldehyde] | 6 | – |
| CC(=O)OCC1(COC(C)=O)C[C@H](C)CC[C@H]1C(C)C [Compound 9, ((2S,5R)-2-isopropyl-5-methylcyclohexane-1,1-diyl)bis(methylene) diacetate] | 0 | – |
| CC1CC(C)(C)CC(CO)(CO)C1 (centres unmarked) [Compound 10, (3,3,5-trimethylcyclohexane-1,1-diyl)dimethanol] | 10 | – |
| CC1CC(C)(C)CC2(COC(C)OC2)C1 (centres unmarked) [Compound 11, 3,8,8,10-tetramethyl-2,4-dioxaspiro[5.5]undecane] | 3 | – |
| CC1CC(C)(C)CC2(COC(C)(C)OC2)C1 (centres unmarked) [Compound 12, 3,3,8,8,10-pentamethyl-2,4-dioxaspiro[5.5]undecane] | 1 | – |
| COCC1(COC)C[C@H](C)CC[C@H]1C(C)C [Compound 17, (2S,5R)-2-isopropyl-1,1-bis(methoxymethyl)-5-methylcyclohexane] | 1 | – |
| CC1(C)CCCC(CO)(CO)C1 [Compound 20, (3,3-dimethylcyclohexane-1,1-diyl)dimethanol] | 4 | – |
| CC(C)[C@@H]1CC[C@@H](C)CC1(COC(=O)CCC(=O)O)COC(=O)CCC(=O)O [Compound 21, 4,4′-((((2S,5R)-2-isopropyl-5-methylcyclohexane-1,1-diyl)bis (methylene))bis(oxy))bis(4-oxobutanoic acid)] | -2 | – |
| CC(C)[C@@H]1CC[C@@H](C)CC12COC(C)(c1ccccc1)OC2 (stereo partly drawn) [Compound 22, (7S,1OR)-7-isopropyl-3,10-dimethyl-3-phenyl-2,4-dioxaspiro[5.5]undecane] | 13 | – |
| CC1OCC2(CCCC(C)(C)C2)CO1 (centres unmarked) [Compound 26, 3,8,8-trimethyl-2,4-dioxaspiro[5.5]undecane] | 3 | – |
| CCC(C)C1CCCCC1(CO)CO (centres unmarked) [Compound 27, (2-(sec-butyl)cyclohexane-1,1-diyl)dimethanol] | 40 | – |
| CC(C)[C@@H]1CC[C@@H](C)CC1(CCO)CCO [Compound 29, 2,2′-((2S,5R)-2-isopropyl-5-methylcyclohexane-1,1-diyl)bis(ethan-1-ol)] | 26 | – |
| CCC(C)C1CCCCC12COC(C)OC2 (centres unmarked) [Compound 31, 7-(sec-butyl)-3-methyl-2,4-dioxaspiro[5.5]undecane] | -2 | – |
| CC(=O)OCC1(CO)C[C@H](C)CC[C@H]1C(C)C (stereo partly drawn) [Compound 32, ((2S,5R)-1-(hydroxymethyl)-2-isopropyl-5-methylcyclohexyl)methyl acetate] | 4 | – |
| CC(C)[C@@H]1CC[C@@H](C)CC1(C(C)O)C(C)O (stereo partly drawn) [Compound 34, 1,1′-((2S,5R)-2-isopropyl-5-methylcyclohexane-1,1-diyl)bis(ethan-1-ol)] | 21 | – |
| C=C(C)[C@@H]1CC[C@@H](C)C[C@H]1C(CO)CO [Compound 35, 2-((1R,2R,5R)-5-methyl-2-(prop-1-en-2-yl)cyclohexyl)propane-1,3-diol] | 14 | – |
| C=C(C)[C@@H]1CC[C@@H](C)C[C@H]1C1COC(C)OC1 (stereo partly drawn) [Compound 36, 2-methyl-5-((1R,2R,5R)-5-methyl-2-(prop-1-en-2-yl)cyclohexyl)-1,3-dioxane] | 6 | – |
| CC(C)[C@@H]1CC[C@@H](C)C[C@H]1C(CO)CO [Compound 37, 2-((1R,2S,5R)-2-isopropyl-5-methylcyclohexyl)propane-1,3-diol] | 65 | EC50 (hTRPM8 [2]): 70 µM |
| CC(C)[C@@H]1CC[C@@H](C)CC1(CO)COCc1ccccc1 (stereo partly drawn) [Compound 38, ((2S,5R)-1-((benzyloxy)methyl)-2-isopropyl-5-methylcyclohexyl) methanol] | 8 | – |
| CC(C)[C@@H]1CC[C@@H](C)CC1(CO)C(=O)O (stereo partly drawn) [Compound 39, (2S,5R)-1-(hydroxymethyl)-2-isopropyl-5-methylcyclohexane-1-carboxylic acid] | 16 | – |
| CC1(C)CC(C)(C)CC(CO)(CO)C1 [Compound 40, (3,3,5,5-tetramethylcyclohexane-1,1-diyl)dimethanol] | 8 | – |
| CC(C)[C@@H]1CC[C@@H](C)C[C@H]1OC(=O)CCC(=O)O [Physcool ™, reference compound] | – | % activation vs iciline (hTRPM8 ion channel): -2% |
| CCNC(=O)C1CC(C)CCC1C(C)C (centres unmarked) [WS-3 ™, reference compound] | – | % activation vs iciline (hTRPM8 ion channel; concentration 119 μM): 76%; EC50 (hTRPM8 [2]): 8 µM |
| CCOC(=O)CNC(=O)[C@@H]1C[C@H](C)CC[C@H]1C(C)C [WS-5 ™, reference compound] | – | % activation vs iciline (hTRPM8 ion channel): 73%; EC50 (hTRPM8 [2]): 1 µM |
| C=C(C)[C@@H]1CC[C@@H](C)C[C@H]1O [l-isopulegol, reference compound] | – | % activation vs iciline (hTRPM8 ion channel; concentration 123 μM): 51% |
| CC(C)[C@@H]1CC[C@@H](C)C[C@H]1O [l-menthol, reference compound] | – | % activation vs iciline (hTRPM8 ion channel; concentration 114 μM): 78% |
| CC1CCC(C(C)C)C(OC(=O)C(C)O)C1 (centres unmarked) [menthyl lactate, reference compound] | – | % activation vs iciline (hTRPM8 ion channel; concentration 116 μM): 53% |
